This passage reports IC50 results from patent publication US20230373934A1, “ANDROGEN RECEPTOR MODULATORS AND METHODS FOR THEIR USE” (ESSA Pharma, Inc., priority 2022, published 2023).

For orientation: pIC50 means the negative decadic logarithm of the IC50, by convention in mol/L.

pIC50: −log10 of the molar value.

The first experiment deals with T1, androgen receptor (AR) (Homo sapiens, UniProt P10275, T878A).
T1 construct: endogenous in cells; host or cells: LNCaP
T1 sequence (P10275 1-920 T878A): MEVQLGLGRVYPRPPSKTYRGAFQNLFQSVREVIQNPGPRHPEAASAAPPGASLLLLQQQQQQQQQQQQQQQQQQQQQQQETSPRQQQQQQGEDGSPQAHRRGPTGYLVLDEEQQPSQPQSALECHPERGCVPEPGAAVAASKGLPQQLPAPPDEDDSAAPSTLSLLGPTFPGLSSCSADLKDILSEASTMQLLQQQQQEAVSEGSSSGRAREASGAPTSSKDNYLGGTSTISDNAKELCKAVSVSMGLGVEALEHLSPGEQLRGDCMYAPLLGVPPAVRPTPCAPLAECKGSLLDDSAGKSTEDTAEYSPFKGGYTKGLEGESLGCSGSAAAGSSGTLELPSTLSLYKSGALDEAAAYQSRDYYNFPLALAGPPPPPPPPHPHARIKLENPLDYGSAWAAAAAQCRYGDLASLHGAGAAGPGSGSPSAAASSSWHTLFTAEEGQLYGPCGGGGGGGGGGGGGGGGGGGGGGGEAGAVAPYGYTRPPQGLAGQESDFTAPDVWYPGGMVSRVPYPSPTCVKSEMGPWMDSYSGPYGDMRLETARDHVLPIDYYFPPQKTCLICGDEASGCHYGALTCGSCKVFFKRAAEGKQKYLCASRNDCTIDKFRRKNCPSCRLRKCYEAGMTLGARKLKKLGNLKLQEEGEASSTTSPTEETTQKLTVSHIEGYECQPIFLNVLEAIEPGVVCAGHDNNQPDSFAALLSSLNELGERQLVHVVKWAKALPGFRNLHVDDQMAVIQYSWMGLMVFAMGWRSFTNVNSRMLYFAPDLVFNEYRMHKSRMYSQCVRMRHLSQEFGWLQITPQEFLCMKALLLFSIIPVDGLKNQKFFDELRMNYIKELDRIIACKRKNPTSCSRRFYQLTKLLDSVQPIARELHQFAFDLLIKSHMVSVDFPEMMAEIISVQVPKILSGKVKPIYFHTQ
In words: Androgen-induced PSA-luciferase assay, Luciferase Assay A (LNCaP transiently transfected with PSA (6.1 kb)-luciferase reporter). Conditions: LNCaP cells, 1 h pretreatment, R1881 (1 nM) 24 h, read-out: PSA-Luc IC50 Range. The format is cell-based. The method in brief:
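LNCaP cells transfected 24 h with PSA (6.1 kb)-luciferase reporter, pretreated 1 h with compound, then stimulated 24 h with R1881 (1 nM). Firefly luminescence in lysates normalized to protein content; IC50 from activity relative to R1881-induced vehicle control.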
In general terms: In a reporter assay the amount or activity of a reporter protein is the signal.
Regarding `CC(C)(c1ccc(OCc2ccnc(NS(C)(=O)=O)n2)cc1)c1cc(Cl)c(OCCN2C(=O)CCCC2=O)c(C#N)c1` [Compound A180], the pIC50 was less than 5.70.

Another experiment addresses T2, androgen receptor (AR) (Homo sapiens, UniProt P10275).
T2 sequence (P10275 1-920 T878A): T1 sequence (P10275 1-920 T878A)
In words: Androgen-induced PSA-luciferase assay, Luciferase Assay B (cells stably expressing ARR2PB or PSA-firefly luciferase reporter, 384-well). The format is cell-based. Conditions: Luciferase Assay B (Compounds A186-A219 and A221-A245); stable luciferase reporter cells, 1 h pretreatment, R1881 24 h, serum-free; read-out: PSA-Luc IC50 Range. As for the experimental part:
Luciferase Assay B: Cells stably expressing probasin promoter (ARR2PB) or human prostate-specific antigen (PSA)-firefly luciferase reporter were plated in poly-D-lysine-coated 384-well plates. 48 h after plating, cells were pretreated with vehicle or compounds for 1 h before adding R1881 under serum-free and phenol red-free conditions and then further incubated for 24 h. R1881 was added only for LNCaP cells. Firefly luciferase activities were determined by EnVision plate reader (Perkinemer) using the Steady-Glo Luciferase Reporter Assay System (Promega). Values were normalized to protein content. GraphPad Prism graphing software was used to calculate IC50 values. Luciferase Assay B was run for Compounds A186-A219 and A221-A245 in Table 2.
Statistical analyses were performed using GraphPad Prism (Version 6.01 for Windows; La Jolla, CA, USA). Comparisons between treatment and control groups were compared using Two-Way ANOVA with post-hoc Dunnett's and Tukey's tests. Differences were considered statistically significant at P values less than 0.05.
On to `CS(=O)(=O)Nc1cnc2ccc(-c3ccc(Oc4cc(Cl)c(OC5CC5)c(C#N)c4)cc3)cc2n1` [Compound A193], for which the pIC50 is 5.70 to 6.30.

As to `CC(=O)N1CCN(c2nccc(COc3ccc(N(CC(F)(F)F)c4cc(Cl)c(OC5CC5)c(C#N)c4)cc3)n2)CC1` [Compound A245], the pIC50 is more than 6.30.

Regarding `CS(=O)(=O)Nc1nccc(COc2ccc(N(CC(F)(F)F)c3cc(Cl)c(OCCCl)c(C#N)c3)cc2)n1` [Compound A238], the pIC50 is more than 6.30.

For `N#Cc1cc(Oc2ccc(-c3ccc4nc(N)cnc4c3)cc2)cc(Cl)c1OC1CC1` [Compound A194], the pIC50 is less than 5.70.

For `CS(=O)(=O)Nc1cnc2cc(-c3ccc(Nc4cc(Cl)c(OC5CC5)c(C#N)c4)cc3)ccc2n1` [Compound A226], the pIC50 is 5.70 to 6.30.

Turning to `CS(=O)(=O)Nc1cc2cnn(Cc3ccc(Oc4cc(Cl)c(OC5CC5)c(C#N)c4)cc3)c2cn1` [Compound A225], the pIC50 was 5.70 to 6.30.

`CS(=O)(=O)Nc1ccc2nc(-c3ccc(Oc4cc(Cl)c(OC5CC5)c(C#N)c4)cc3)cnc2n1` [Compound A219]: the pIC50 is 5.70 to 6.30.

`N#Cc1cc(Oc2ccc(-c3ccc4nc(N5CCOCC5)cnc4c3)cc2)cc(Cl)c1OC1CC1` [Compound A204]: the pIC50 is less than 5.70.

`CS(=O)(=O)Nc1cnc2cc(-c3ccc(N(CC(F)(F)F)c4cc(Cl)c(N5CCOCC5)c(C#N)c4)cc3)ccc2n1` [Compound A224, N-(6-(4-((3-chloro-5-cyano-4-morpholinophenyl)(2,2,2-trifluoroethyl)amino)phenyl)quinoxalin-2-yl)methanesulfonamide]: the pIC50 was more than 6.30.

For the compound `N#Cc1cc(Oc2ccc(-c3ccc4nc(N5CCNCC5)cnc4c3)cc2)cc(Cl)c1OC1CC1` [Compound A240], the pIC50 was less than 5.70.

On to `CN(c1cnc2cc(-c3ccc(N(CC(F)(F)F)c4cnc(OC5CC5)c(C#N)c4)cc3)ccc2n1)S(C)(=O)=O` [Compound A239], for which the pIC50 was more than 6.30.

For the compound `CS(=O)(=O)Nc1cnc2cc(-c3ccc(Oc4cnc(OC5CC5)c(C#N)c4)cc3)ccc2n1` [Compound A217], the pIC50 is less than 5.70.

`CS(=O)(=O)Nc1cnc2cc(-c3ccc(Oc4cnc(OC5CC5)c(Cl)c4)cc3)ccc2n1` [Compound A218]: the pIC50 was 5.70 to 6.30.

As for `CN(c1cnc2cc(-c3ccc(Oc4cc(Cl)c(OC5CC5)c(C#N)c4)cc3)ccc2n1)S(C)(=O)=O` [Compound A195], the pIC50 was 5.70 to 6.30.

On to `CS(=O)(=O)Nc1nccc(COc2ccc(N(CC(F)(F)F)c3cc(Cl)c(N4CCOCC4)c(C#N)c3)cc2)n1` [Compound A223], for which the negative-log IC50 (pIC50) is more than 6.30.

Turning to `CS(=O)(=O)NCc1cnc(-c2ccc(Oc3cc(Cl)c(OC4CC4)c(C#N)c3)cc2)cn1` [Compound A213], the pIC50 is 5.70 to 6.30.

As to `CS(=O)(=O)Nc1cc(=O)n2cc(-c3ccc(Oc4cc(Cl)c(OC5CC5)c(C#N)c4)cc3)ccc2n1` [Compound A211], the pIC50 was less than 5.70.

On to `CS(=O)(=O)Nc1ncc(-c2ccc(Oc3cc(Cl)c(OC4CC4)c(C#N)c3)cc2)cn1` [Compound A196], for which the pIC50 is 5.70 to 6.30.

Consider `CNc1cnc2cc(-c3ccc(Oc4cc(Cl)c(OC5CC5)c(C#N)c4)cc3)ccc2n1` [Compound A200], for which the pIC50 was less than 5.70.

For `CS(=O)(=O)NCc1cnc2cc(-c3ccc(Oc4cc(Cl)c(OC5CC5)c(C#N)c4)cc3)ccc2n1` [Compound A207, N-((6-(4-(3-chloro-5-cyano-4-cyclopropoxyphenoxy)phenyl)quinoxalin-2-yl)methyl)methanesulfonamide], the pIC50 is 5.70 to 6.30.

For `CS(=O)(=O)NC12CC(COc3ccc(N(CC(F)(F)F)c4cc(Cl)c(OC5CC5)c(C#N)c4)cc3)(C1)C2` [Compound A236, N-(3-((4-((3-chloro-5-cyano-4-cyclopropoxyphenyl)(2,2,2-trifluoroethyl)amino)phenoxy)methyl)bicyclo[1.1.1]pentan-1-yl)methanesulfonamide], the pIC50 was more than 6.30.

For the compound `Cn1nc(NS(C)(=O)=O)c2ccc(-c3ccc(Oc4cc(Cl)c(OC5CC5)c(C#N)c4)cc3)cc21` [Compound A209], the pIC50 is less than 5.70.

`CS(=O)(=O)Nc1cc2ccc(-c3ccc(Oc4cc(Cl)c(OC5CC5)c(C#N)c4)cc3)cc2nn1` [Compound A192]: the pIC50 is more than 6.30.

Consider `CC(C)(c1ccc(-c2cnc(NS(C)(=O)=O)nc2)cc1)c1cc(Cl)c(OC2CC2)c(C#N)c1` [Compound A197], for which the pIC50 was 5.70 to 6.30.

As to `N#Cc1cc(Oc2ccc(-c3ccc4nc(NC5CS(=O)(=O)C5)cnc4c3)cc2)cc(Cl)c1OC1CC1` [Compound A216], the pIC50 is less than 5.70.

Regarding `N#Cc1cc(Oc2ccc(-c3ccc4nc(NC5CCS(=O)(=O)CC5)cnc4c3)cc2)cc(Cl)c1OC1CC1` [Compound A215], the pIC50 is 5.70 to 6.30.

Turning to `CS(=O)(=O)NC12CC(COc3ccc(Oc4cc(Cl)c(OC5CC5)c(C#N)c4)cc3)(C1)C2` [Compound A228, N-(3-((4-(3-chloro-5-cyano-4-cyclopropoxyphenoxy)phenoxy)methyl)bicyclo[1.1.1]pentan-1-yl)methanesulfonamide], the pIC50 is less than 5.70.

On to `CCCOc1c(Cl)cc(Oc2ccc(-c3ccc4nc(NS(C)(=O)=O)cnc4c3)cc2)cc1C#N` [Compound A188], for which the pIC50 is 5.70 to 6.30.

In the case of `CS(=O)(=O)Nc1cncc(N2CC(c3ccc(Oc4cc(Cl)c(OC5CC5)c(C#N)c4)cc3)C2)n1` [Compound A232], the pIC50 is 5.70 to 6.30.

For the compound `CS(=O)(=O)Nc1cc2n(n1)CCN(c1ccc(Oc3cc(Cl)c(OC4CC4)c(C#N)c3)cc1)C2` [Compound A231], the negative logarithm of the IC50 (pIC50) was less than 5.70.

For `Cn1nc(NS(C)(=O)=O)c2cc(-c3ccc(Oc4cc(Cl)c(OC5CC5)c(C#N)c4)cc3)ccc21` [Compound A210], the pIC50 was 5.70 to 6.30.

As for `CS(=O)(=O)Nc1cnc2cc(-c3ccc(N(CC(F)(F)F)c4cnc(N5CCOCC5)c(C#N)c4)cc3)ccc2n1` [Compound A233], the pIC50 was 5.70 to 6.30.

In the case of `CC(C)(c1ccc(OCc2ccnc(N3CCOCC3)n2)cc1)c1cc(Cl)c(OC2CC2)c(C#N)c1` [Compound A201, 3-chloro-2-cyclopropoxy-5-(2-(4-((2-morpholinopyrimidin-4-yl)methoxy)phenyl)propan-2-yl)benzonitrile], the negative logarithm of the IC50 (pIC50) was 5.70 to 6.30.

Turning to `N#Cc1cc(Oc2ccc(-c3ccc4nc(N5CCNCC5)ncc4c3)cc2)cc(Cl)c1OC1CC1` [Compound A241], the pIC50 is less than 5.70.

Consider `N#Cc1cc(Oc2ccc(-c3ccc4nc(N5CCS(=O)(=O)CC5)cnc4c3)cc2)cc(Cl)c1OC1CC1` [Compound A206], for which the pIC50 was 5.70 to 6.30.

Consider `CS(=O)(=O)Nc1cnc2cc(-c3ccc(Oc4cc(Cl)c(OCCC(F)(F)F)c(C#N)c4)cc3)ccc2n1` [Compound A189], for which the pIC50 is 5.70 to 6.30.

Consider `CS(=O)(=O)NC12CC(COc3ccc(N(CC(F)(F)F)c4cnc(NC5CC5)c(C#N)c4)cc3)(C1)C2` [Compound A235], for which the pIC50 is less than 5.70.

With `CS(=O)(=O)NCc1ccc(-c2ccc(Oc3cc(Cl)c(OC4CC4)c(C#N)c3)cc2)cn1` [Compound A212], the pIC50 was 5.70 to 6.30.

For `CS(=O)(=O)Nc1cnc2cc(-c3ccc(N(CC(F)F)c4cc(Cl)c(OC5CC5)c(C#N)c4)cc3)ccc2n1` [Compound A222], the pIC50 is more than 6.30.

Consider `CS(=O)(=O)Nc1cc2cn(Cc3ccc(Oc4cc(Cl)c(OC5CC5)c(C#N)c4)cc3)nc2cn1` [Compound A227], for which the pIC50 was 5.70 to 6.30.

For the compound `CS(=O)(=O)NCc1ccc(-c2ccc(Oc3cc(Cl)c(OC4CC4)c(C#N)c3)cc2)nn1` [Compound A214], the pIC50 was 5.70 to 6.30.

In the case of `CC(C)(c1ccc(OCc2ccnc(N3CCNCC3)n2)cc1)c1cc(Cl)c(OC2CC2)c(C#N)c1` [Compound A243], the pIC50 is 5.70 to 6.30.
